Values after ≈ are worked out from the molar mass of the structure shown. Active and inactive are the calls of the source. No cut-off for these calls is given here.
Key:
[1] = tested on: Bacillus subtilis; assay: Inhibition of DHPS in Bacillus subtilis assessed as antibacterial activity by measuring inhibition zone at 5 mg/mL incubated for 24 hrs by disk diffusion method
[2] = tested on: Escherichia coli; assay: Inhibition of DHPS in Escherichia coli assessed as antibacterial activity by measuring inhibition zone at 5 mg/mL incubated for 24 hrs by disk diffusion method
[3] = tested on: Escherichia coli; assay: Potency index, ratio of sulfisoxazole MIC to compound MIC for Escherichia coli assessed as inhibition of DHPS-mediated bacterial growth incubated for 24 hrs by microbroth dilution method
[4] = tested on: Proteus vulgaris; assay: Inhibition of DHPS in Proteus vulgaris assessed as antibacterial activity by measuring inhibition zone at 5 mg/mL incubated for 24 hrs by disk diffusion method
[5] = tested on: Aspergillus fumigatus; assay: Potency index, ratio of sulfisoxazole MIC to compound MIC for Aspergillus fumigatus assessed as inhibition of DHPS-mediated fungal growth incubated for 48 hrs by microbroth dilution method
[6] = tested on: Staphylococcus epidermidis; assay: Potency index, ratio of sulfisoxazole MIC to compound MIC for Staphylococcus epidermidis assessed as inhibition of DHPS-mediated bacterial growth incubated for 24 hrs by microbroth dilution method
[7] = tested on: Escherichia coli ATCC 25922; assay: Inhibition of DHPS in Escherichia coli ATCC 25922 assessed as inhibition of bacterial growth incubated for 24 hrs in presence of folate dependent metabolite, methionine by microbroth dilution method
[8] = tested on: Proteus vulgaris; assay: Inhibition of DHPS in Proteus vulgaris assessed as antibacterial activity by measuring inhibition of bacterial growth incubated for 24 hrs by microbroth dilution method
[9] = tested on: Syncephalastrum racemosum; assay: Potency index, ratio of amphotericin B MIC to compound MIC for Syncephalastrum racemosum assessed as inhibition of DHPS-mediated fungal growth incubated for 48 hrs by microbroth dilution method
[10] = tested on: Streptococcus pneumoniae; assay: Potency index, ratio of sulfisoxazole MIC to compound MIC for Streptococcus pneumoniae assessed as inhibition of DHPS-mediated bacterial growth incubated for 24 hrs by microbroth dilution method
[11] = tested on: Geotrichum candidum; assay: Inhibition of DHPS in Geotrichum candidum assessed as antifungal activity by measuring inhibition of fungal growth incubated for 48 hrs by microbroth dilution method
[12] = tested on: Bacillus subtilis; assay: Inhibition of DHPS in Bacillus subtilis assessed as antibacterial activity by measuring inhibition of bacterial growth incubated for 24 hrs by microbroth dilution method
[13] = tested on: Klebsiella pneumoniae; assay: Potency index, ratio of sulfisoxazole MIC to compound MIC for Klebsiella pneumoniae assessed as inhibition of DHPS-mediated bacterial growth incubated for 24 hrs by microbroth dilution method
[14] = tested on: Escherichia coli; assay: Inhibition of DHPS in Escherichia coli assessed as antibacterial activity by measuring inhibition of bacterial growth incubated for 24 hrs by microbroth dilution method
[15] = tested on: Syncephalastrum racemosum; assay: Inhibition of DHPS in Syncephalastrum racemosum assessed as antifungal activity by measuring inhibition of fungal growth incubated for 48 hrs by microbroth dilution method
[16] = tested on: Staphylococcus epidermidis; assay: Inhibition of DHPS in Staphylococcus epidermidis assessed as antibacterial activity by measuring inhibition zone at 5 mg/mL incubated for 24 hrs by disk diffusion method
[17] = tested on: Aspergillus fumigatus; assay: Inhibition of DHPS in Aspergillus fumigatus assessed as antifungal activity by measuring inhibition of fungal growth incubated for 48 hrs by microbroth dilution method
[18] = tested on: Streptococcus pneumoniae; assay: Inhibition of DHPS in Streptococcus pneumoniae assessed as antibacterial activity by measuring inhibition of bacterial growth incubated for 24 hrs by microbroth dilution method
[19] = tested on: Staphylococcus epidermidis; assay: Inhibition of DHPS in Staphylococcus epidermidis assessed as antibacterial activity by measuring inhibition of bacterial growth incubated for 24 hrs by microbroth dilution method
[20] = tested on: Aspergillus fumigatus; assay: Inhibition of DHPS in Aspergillus fumigatus assessed as antifungal activity by measuring inhibition zone at 5 mg/mL incubated for 48 hrs by disk diffusion method
[21] = tested on: Syncephalastrum racemosum; assay: Inhibition of DHPS in Syncephalastrum racemosum assessed as antifungal activity by measuring inhibition zone at 5 mg/mL incubated for 48 hrs by disk diffusion method
[22] = tested on: Escherichia coli ATCC 25922; assay: Inhibition of DHPS in Escherichia coli ATCC 25922 assessed as inhibition of bacterial growth incubated for 24 hrs in presence of folate precursor, pABA by microbroth dilution method
[23] = tested on: Klebsiella pneumoniae; assay: Inhibition of DHPS in Klebsiella pneumoniae assessed as antibacterial activity by measuring inhibition of bacterial growth incubated for 24 hrs by microbroth dilution method
[24] = tested on: Klebsiella pneumoniae; assay: Inhibition of DHPS in Klebsiella pneumoniae assessed as antibacterial activity by measuring inhibition zone at 5 mg/mL incubated for 24 hrs by disk diffusion method
[25] = tested on: Geotrichum candidum; assay: Inhibition of DHPS in Geotrichum candidum assessed as antifungal activity by measuring inhibition zone at 5 mg/mL incubated for 48 hrs by disk diffusion method
[26] = tested on: Geotrichum candidum; assay: Potency index, ratio of sulfisoxazole MIC to compound MIC for Geotrichum candidum assessed as inhibition of DHPS-mediated fungal growth incubated for 48 hrs by microbroth dilution method
[27] = tested on: Streptococcus pneumoniae; assay: Inhibition of DHPS in Streptococcus pneumoniae assessed as antibacterial activity by measuring inhibition zone at 5 mg/mL incubated for 24 hrs by disk diffusion method
[28] = tested on: Bacillus subtilis; assay: Potency index, ratio of sulfisoxazole MIC to compound MIC for Bacillus subtilis assessed as inhibition of DHPS-mediated bacterial growth incubated for 24 hrs by microbroth dilution method

inhibition zone (IZ) [1]	inhibition zone (IZ) [2]	inhibition zone (IZ) [4]	Ratio [5]	Ratio [6]	inhibition [7]	MIC [8]	Ratio [9]	MIC [11]	MIC [12]	Ratio [13]	MIC [14]	MIC [15]	inhibition zone (IZ) [16]	MIC [17]	MIC [18]	MIC [19]	inhibition zone (IZ) [20]	inhibition zone (IZ) [21]	inhibition [22]	Compound	other results
23.4 mm	20.2 mm	17.8 mm	4 to 6	2	inactive	7.81 µg/mL (≈ 10.6 µM)	1	1.95 µg/mL (≈ 2.64 µM)	0.98 µg/mL (≈ 1.33 µM)	8	3.9 µg/mL (≈ 5.29 µM)	3.9 µg/mL (≈ 5.29 µM)	20.4 mm	3.9 µg/mL (≈ 5.29 µM)	0.98 µg/mL (≈ 1.33 µM)	3.9 µg/mL (≈ 5.29 µM)	19.3 mm	19.9 mm	inactive	CN/C(S[C@@H]1O[C@H](COC(C)=O)[C@@H](OC(C)=O)[C@H](OC(C)=O)[C@H]1OC(C)=O)=C(/C#N)C(=O)Nc1ccc(S(=O)(=O)Nc2onc(C)c2C)cc1	Ratio [3]: 4; Ratio [10]: 2; MIC [23]: 0.98 µg/mL (≈ 1.33 µM); inhibition zone (IZ) [24]: 22.1 mm; inhibition zone (IZ) [25]: 21.2 mm; Ratio [26]: 3 to 5; inhibition zone (IZ) [27]: 22.2 mm
23.8 mm	21.2 mm	20.1 mm	7	2	inactive	3.9 µg/mL (≈ 9 µM)	2	0.24 µg/mL (≈ 0.554 µM)	0.49 µg/mL (≈ 1.13 µM)	4	1.95 µg/mL (≈ 4.5 µM)	3.9 µg/mL (≈ 9 µM)	20.1 mm	0.49 µg/mL (≈ 1.13 µM)	0.98 µg/mL (≈ 2.26 µM)	3.9 µg/mL (≈ 9 µM)	22.3 mm	20.4 mm	inactive	C=CCN/C(S)=C(/C#N)C(=O)Nc1ccc(S(=O)(=O)Nc2onc(C)c2C)cc1	Ratio [28]: 2; MIC [23]: 0.49 µg/mL (≈ 1.13 µM); inhibition zone (IZ) [24]: 24.2 mm; inhibition zone (IZ) [25]: 25.2 mm; Ratio [26]: 6; inhibition zone (IZ) [27]: 21.7 mm

Reference: ChEMBL document CHEMBL4627352, “New acrylamide-sulfisoxazole conjugates as dihydropteroate synthase inhibitors” (Bioorg Med Chem, 2020)
